The values below come from patent publication US11225475B2, “Substituted pyridines as inhibitors of histone deacetylase” (Alkermes, Inc., priority 2017, dated 2022).

Structures are written as SMILES. pIC50: −log10 of the molar value.

Data set [1] concerns the target T1, HDAC2 (Homo sapiens (Human), UniProt Q92769). As to the kind of experiment: HDAC2 enzymatic assay (deacetylation of peptide substrate, Caliper LabChip). In kind it is biochemical. To be noted: reaction time 17 hours, 25° C. As for the experimental part: (§1) The following describes an assay protocol for measuring the deacetylation of a peptide substrate by the enzymes HDAC2 or HDAC1. Enzyme, substrate, and cofactors are combined in a well of a microtiter plate and incubated for […] at 25° C. At the end of the incubation, the reaction is quenched by the addition of an SDS-containing buffer. Substrate and product are separated and quantified electrophoretically using the microfluidic-based LabChip 3000 Drug Discovery System from Caliper Life Sciences. The peptide substrate used in this assay is FAM-TSRHK(AC)KL-CONH2 (FAM is carboxyfluorescein). Peptide should be >98% purity by Capillary Electrophoresis. • 1. To a well of a 384-well plate, add 5 μL of 2× enzyme buffer. Using Labcyte Echo 550, add 100 nl compound. Enzyme and compound may be pre-incubated at this time if desired. • 2. Add 5 μL of 2× substrate buffer. • 3. Incubate plate at 25° C. for 17 hours. • 4. Terminate reaction by adding 40 μL of 1.55× stop buffer. • 5. Create job on a Caliper LabChip® 3000 Drug Discovery System. • 6. Load the plate and start electrophoresis using blue laser (480 nm) for excitation and green CCD (520 nm) for detection (CCD2). Reaction time=17 hours; Reaction temperature=25° C.
(§2) 1% DMSO (from compound) 1 μM FAM-TSRHK(AC)KL-CONH2 5 nM HDAC Enzyme (specific activity may vary from lot-to-lot, and enzyme concentration may need to be adjusted to yield ˜10-20% conversion of substrate to product).
(§3) Substrate and product peptides present in each sample are separated electrophoretically using the LabChip 3000 capillary electrophoresis instrument. As substrate and product peptides are separated, two peaks of fluorescence are observed. Change in the relative fluorescence intensity of the substrate and product peaks is the parameter measured, reflecting enzyme activity. Capillary electrophoregramms (RDA acquisition files) are analyzed using HTS Well Analyzer software (Caliper Life Sciences). The enzyme activity in each sample is determined as the product to sum ratio (PSR):P/(S+P), where P is the peak height of the product peptide and S is the peak height of the substrate peptide. For each compound, enzyme activity is measured at various concentrations (12 concentrations of compound spaced by 3× dilution intervals). Negative control samples (0%-inhibition in the absence of inhibitor) and positive control samples (100%-inhibition, in the presence of 20 mM EDTA) are assembled in replicates of four and are used to calculate %-inhibition values for each compound at each concentration. Percent inhibition (Pinh) is determined using following equation: Pinh=(PSR0%−PSRinh)/(PSR0%−PSR100%)*100, where PSRinh is the product sum ratio in the presence of inhibitor, PSR0% is the average product sum ration in the absence of inhibitor and PSR100% is the average product sum ratio in 100%-inhibition control samples.
(§4) The IC50 values of inhibitors are determined by fitting the inhibition curves (Pinh versus inhibitor concentration) by 4 parameter sigmoidal dose-response model using XLfit 4 software (MDS).

For data set [2], the system named is human erythroid (CFU-E, BFU-E) progenitors. Kind of data set: Erythroid CFU assay (human bone marrow clonogenic progenitors). Conditions: 10 uM, 14 days in culture. In kind it is cell-based. On the procedure:
(§5) Clonogenic progenitors of human erythroid (CFU-E, BFU-E), granulocyte-monocyte (CFU-GM) and multipotential (CFU-GEMM) lineages were assessed in a semi-solid methylcellulose-based media formulation containing rhIL-3 (10 ng/mL), rhGM-SCF (10 ng/mL), rhSCF (50 ng/mL) and Epo (3 U/mL).
(§6) Normal human bone marrow light density cells derived from normal bone marrow (NorCal Biologics, California) and qualified at ReachBio, were stored in the gaseous phase of liquid nitrogen (−152° C.) until required for the assay. On the day of the experiment, the cells were thawed rapidly, the contents of each vial was diluted in 10 mL of Iscove's modified Dulbecco's medium containing 10% fetal bovine serum (IMDM+10% FBS) and washed by centrifugation (approximately 1200 r.p.m. for 10 minutes, room temperature). The supernatant was discarded and the cell pellets resuspended in a known volume of IMDM+10% FBS. A cell count (3% glacial acetic acid) and viability assessment (trypan blue exclusion test) was performed for the bone marrow sample.
(§7) On the day of the experiment, the compounds were dissolved in DMSO to a stock concentration of 10 mM. Serial dilutions were prepared from the stock concentration to achieve concentrations of 2 and 0.4 mM. When added to the methylcellulose-based media at 1:1000 (v/v), the final test concentrations of 10, 2 and 0.4 μM were achieved. Additionally, 5-FU was evaluated at 1.0, 0.1 and 0.01 μg/mL.
(§8) Clonogenic progenitors of the human erythroid (CFU-E and BFU-E) and myeloid (CFU-GM) lineages were set up in the methylcellulose-based media formulations described above. All compounds were added to the medium to give the final desired concentrations ([…] 5-Fluorouracil (Sigma Aldrich) was used as a positive control for progenitor proliferation (inhibition of colony growth) and was introduced to the human bone marrow cultures at 1.0, 0.1, and 0.01 μg/mL. Solvent control cultures (containing no compound but 0.1% DMSO) as well as standard controls (containing no compound and no DMSO) were also initiated.
(§9) Human myeloid and erythroid progenitor assays were initiated at 2.0×10^4 cells per culture. Following 14 days in culture, myeloid and erythroid colonies were assessed microscopically and scored by trained personnel. The colonies were divided into the following categories based on size and morphology: CFU-E, BFU-E, CFU-GM and CFU-GEMM.
(§10) The mean±one standard deviation of three replicate cultures was calculated for progenitors of each category (CFU-E, BFU-E, etc.). Two-tailed t-tests were performed to assess if there was a difference in the number of colonies generated between solvent control and treated cultures. Due to the potential subjectivity of colony enumeration, a p value of less than 0.01 is deemed significant. To calculate the concentration of 50% inhibition of colony growth (IC50) for each compound, a dose response curve was generated plotting the log of the compound concentration versus the percentage of control colony growth using XLfit software (IDBS). The concentration of 50% inhibition of colony growth (IC50) was calculated based on the sigmoid curve fit using Dose-Response, One-Site Model formula: y=A+[(B−A)/(1+((C/x)^D))], where A=the initial value (baseline response), B=maximum response, C=center (drug concentration that provokes a response halfway between A and B) and D=slope of the curve at midpoint. Further, plots and additional dose response curves were generated using GraphPad Prism 7.0.
(§11) Erythroid (CFU-E and BFU-E), myeloid (CFU-GM) and multi-potential (CFU-GEMM) colony enumeration was performed by trained personnel. The distribution of colony types as well as general colony and cellular morphology was analyzed. For statistical analysis colony numbers in compound treated cultures were compared to the solvent control cultures. […] The experiment was used to evaluate the potential effect of test compounds on human erythroid and myeloid progenitor proliferation in a methylcellulose-based medium. […]

Data set [3] concerns human myeloid (CFU-GM) progenitors. Kind of data set: Myeloid CFU assay (human bone marrow clonogenic progenitors). In kind it is cell-based. Conditions: 14 days in culture. As for the experimental part:
as §5, §6, §7, §8, §9, §10, §11

Data set [4] addresses HDAC1 (Homo sapiens (Human), UniProt Q13547). Kind of data set: HDAC1 enzymatic assay (deacetylation of peptide substrate, Caliper LabChip). In kind it is biochemical. Conditions: reaction time 17 hours, 25° C. As for the experimental part: as §1, §2, §3, §4
The target of data set [5] is T1, HDAC2. As to the kind of experiment: HDAC2 enzymatic inhibition assay in SH-SY5Y cell lysate (HDAC-Glo 2). In kind it is cell-based. Conditions: SH-SY5Y cells, five hours incubation. As for the experimental part:
SH-SY5Y cells (Sigma) were cultured in Eagle's Modified Essential Medium supplemented with 10% fetal bovine serum and pen/strep. Twenty-four hours prior to compound dosing 20 uL of cells were plated in white 384 well plates at a density of 1,500 cells/well. Compounds were serially diluted in neat DMSO and then diluted 1:100 v/v into media without FBS and mixed. Media was removed from the plated cells and the diluted compounds in serum free media (1% v/v final DMSO) were added and incubated at 37.0 for five hours. Ten uL of HDAC-Glo 2 reagent with 0.1% Triton X-100 was then added, the plate was mixed and allowed to develop at room temperature for 100 minutes. Plates were then read with a Spectramax LMax luminometer employing a 0.4s integration time. Dose response curves were constructed with normalized data where CI-994 at 100 uM was defined as 100% inhibition and DMSO alone as 0% inhibition.

HDAC1, sequence (Q13547 whole entry): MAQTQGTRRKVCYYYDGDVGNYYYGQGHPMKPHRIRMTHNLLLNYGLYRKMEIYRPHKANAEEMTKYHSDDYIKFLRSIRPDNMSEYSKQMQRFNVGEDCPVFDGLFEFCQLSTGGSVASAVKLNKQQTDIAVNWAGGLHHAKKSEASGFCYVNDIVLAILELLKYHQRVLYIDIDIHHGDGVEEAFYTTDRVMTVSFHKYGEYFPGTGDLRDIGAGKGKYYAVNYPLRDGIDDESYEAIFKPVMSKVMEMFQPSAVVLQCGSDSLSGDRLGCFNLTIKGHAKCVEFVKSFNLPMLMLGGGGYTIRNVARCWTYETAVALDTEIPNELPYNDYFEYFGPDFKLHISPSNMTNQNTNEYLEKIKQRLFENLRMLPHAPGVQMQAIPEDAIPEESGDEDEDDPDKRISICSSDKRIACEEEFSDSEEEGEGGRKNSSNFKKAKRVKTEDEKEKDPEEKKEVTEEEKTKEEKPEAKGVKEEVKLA
T1 sequence (Q92769 whole entry): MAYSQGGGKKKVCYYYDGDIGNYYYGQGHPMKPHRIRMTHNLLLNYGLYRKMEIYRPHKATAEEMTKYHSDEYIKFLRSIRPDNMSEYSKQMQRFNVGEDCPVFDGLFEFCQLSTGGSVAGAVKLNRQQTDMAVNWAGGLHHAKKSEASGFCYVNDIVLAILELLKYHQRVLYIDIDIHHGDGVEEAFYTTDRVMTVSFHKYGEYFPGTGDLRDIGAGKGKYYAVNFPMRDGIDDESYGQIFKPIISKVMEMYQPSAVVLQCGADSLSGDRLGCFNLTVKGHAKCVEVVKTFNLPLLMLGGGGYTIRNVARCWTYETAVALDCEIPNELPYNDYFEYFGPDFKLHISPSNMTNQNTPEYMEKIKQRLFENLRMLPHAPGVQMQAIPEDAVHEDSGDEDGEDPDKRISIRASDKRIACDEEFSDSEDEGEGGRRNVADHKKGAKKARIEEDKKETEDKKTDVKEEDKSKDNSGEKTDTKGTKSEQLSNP

Usually pIC50 stands for the IC50 on a negative log10 scale, so that one unit is a factor of ten. Read a low pIC50 as a large IC50. For `COCCn1cc2c(n1)CN(C(=O)Nc1nc(-c3ccccc3F)ccc1N)C2` [Compound 8], the pIC50 is 5.30 to 6.30 in data set [1], 6.30 to 7.00 in data set [4] and 6.00 to 7.00 in data set [5]. Moreover, the “Erythroid % control remaining @ 10 uM dose” value in data set [2] was 72%. Besides, in data set [3], the “Myeloid % control remaining @ 10 uM dose” value came out at 75%.
For the molecule `COCc1cc2c(cn1)CN(C(=O)Nc1nc(-c3ccccc3F)ccc1N)C2` [Compound 9], the results for the pIC50 in data set [1], in data set [4] and in data set [5] were 5.30 to 6.30, 6.30 to 7.00 and 6.00 to 7.00, respectively. Moreover, in data set [2], the “Erythroid % control remaining @ 10 uM dose” value turned out to be 87%. Further, in data set [3], the “Myeloid % control remaining @ 10 uM dose” value is 102%.
For `CCn1cc2c(n1)CN(C(=O)Nc1nc(-c3ccc(F)cc3F)ccc1N)C2` [Compound 10], in that order: 6.30 to 7.00, 6.30 to 7.00, 6.00 to 7.00, 38% and 77%.
